Data set [1] relates to Rabbit corneal epithelium cell. Kind of data set: Effect on corneal epithelium cell after UVA irradiation (neutral red uptake assay). The format is cell-based. As to conditions: 60 min incubation, UVA 3.5 mW/cm^2 for 70 min, viability after 24 hours. On the procedure:
Test 2: Effect of the Compound of Example 1 to Corneal Epithelium Cell [Method]
Rabbit corneal epithelium cell (KURABO) was used as the cell for the test. To the rabbit corneal epithelium cell placed on 96 well plate was added the compound of Example 1, and the sample was incubated for 60 minutes. Then, the sample was irradiated with UVA (3.5 mW/cm^2) for 70 minutes using a solar simulator (SOL500). After that, the cell was washed with a buffer. After 24 hours, the cell viability was evaluated by the neutral red uptake assay.

Data set [2] concerns retinal ganglion cell (RGC). Kind of data set: Neuroprotection: cell survival of purified retinal ganglion cells. The note with it: five days of culture, control = 0%, BDNF (50 ng/mL) = 100%, Mean ± SE. In kind it is cell-based, Long Evans rat. How it is done: This experiment was performed according to a method reported by Otori et al. (Invest Opthalmol Vis Sci. 39: 972-981, 1998).
Eyes were enucleated from 7 day old Long Evans rat. Retinas were isolated from the eyes. The retinas were dissociated by incubating with Neurobasal medium including 15 U/mL papain at 37° C. for 30 minutes. The retinal suspension was prepared.
The retinal suspension was incubated in anti-SIRP antibody (Chemicon)-coated flask at room temperature for 30 minutes. The non adherent cells were placed in anti-thy-1 antibody (Chemicon)-coated flask. The cells were incubated at room temperature for 30 minutes. Finally the adherent cells in flask were washed with Neurobasal medium. After centrifugation at 800 rpm for 5 minutes, the purified RGC was prepared. The cells were seeded on glass coverslips that had been coated with poly-L-lysine and laminin. The purified RGC were cultured in Neurobasal medium containing B27 supplement, 1 mM glutamine 50 ng/mL CNTF, 10 μM Forskolin. Culture was maintained at 37° C. in humidified atmosphere containing 5% CO2 and 95%, air. BDNF (50 ng/mL) or the compound of Example 1 at final concentration of 0 nM (control), 3 nM, 10 nM or 30 nM was administered immediately after cell seeding.
Cell survival (cell viability) was determined by counting stained RGC. Five days after culture started, RGC were stained with 1 μM Calcein-AM (Molecular probe). The number of RGC was counted using fluorescence microscope. The percentage of cell survival (cell viability) was calculated by using the counts of control group as 0%, and the counts of BDNF group as 100%.
The cell survival was calculated by using the counts of control groups as 0% and the counts of BDNF groups as 100%.

A further data set has as its system ciliary artery. As to the kind of experiment: Vascular relaxation of isolated ciliary artery contracted with High K+-krebs solution. Details: species or system Rabbits. How it is done: Rabbits were sacrificed with an overdose of sodium pentobarbital by intravenous administration. The eyes were enucleated and ciliary arteries were isolated. Vascular rings were cut 2 mm in length from ciliary arteries and set to Danish Multi Myograph System 610M (Danish myo technology) under microscopic observation. The vessels were equilibrated in oxygenated krebs solution with 5% CO2 and 95% O2 at 37° C.
To confirm the endothelium damage of vessels, the relaxation of ciliary artery by 100 μM carbachol was tested. If relaxation by carbachol was more than 30%, the vessels whose endothelium had no damage were used for the experiments.
After ciliary artery was contracted with High K^+-krebs solution, the compound of Example 1 was serially administrated to chamber from 0.3 μM to 300 μM. The tension was measured by Myodaq ver 2.01 (Danish myo technology).

Data set [3] addresses T1, adenosine A2a receptor (Human) (Homo sapiens, UniProt P29274).
T1 construct: host or cells: HEK293
Kind of data set: c-AMP generating action in cell expressing adenosine A2a receptor. In kind it is cell-based. How it is done:
Test 1: c-AMP Generating Action in Cell Expressing Adenosine A2a Receptor
The test was carried out as mentioned below with reference to the method disclosed in the reference (Klotz k. N. et al., Naunyn-Schmiedeberg's Arch. Pharmacol., (1998) 357, 1-9; Shryock J. C. et al., Molecular Pharmacology, (1998) 53, 886-893).
As to the cell to be used in the test, HEK293 cell expressing adenosine A2a receptor (Human) (PerkinElmer Life Sciences, Code No. RBHA2AC) was used.
As to the culture medium, Dulbecco's modified Eagles medium (DMEM) including 10% FBS (Fetal bovine serum) and 1 mM of sodium pyruvate was used.
The cell was placed on 96 well plate (1×10^5/well), and cultured overnight. After removing off the supernatant, 0.1 ml of DMEM (without FBS) containing 20 mM HEPES, 0.1 mM IBMX (3-isobutyl-1-methylxanthine) and 2 unit/mL adenosine deaminase were added to each well, and they were incubated at 37° C. for 30 minutes. Then, 0.1 ml of the culture medium containing the DMSO solution of the test compound in the predetermined concentration was added to each well, and they were incubated for additional 30 minutes. After removing off the supernatant, the cytolytic solution was added thereto to quench the reaction. The amount of c-AMP in each well was measured by using the c-AMP enzyme immunoassay (EIA) system (Amersham Biosciences, Code No. RPN225).
The same assay was repeated using CGS-21680 (2-p-carboxyethyl)phenethylamino-5′-N-ethylcarboxamidoadenosine hydrochloride, (Sigma, code C141) as a reference compound.
The amount of resultant c-AMP in the reference medium, caused by 1 μM of the reference compound, was defined to be 100%. The amount of resultant c-AMP in each test medium was measured, and the concentration producing 50% c-AMP amount was calculated based on the results of each test compound in the predetermined concentration, which is defined as EC50 value.

Where [4] appears, read: HEK293 cell expressing human adenosine A2a receptor, c-AMP by 1 μM CGS-21680 defined as 100%, read-out: A2a agonistic activity (EC50).

Each structure is given as a SMILES string. Where a name gives a salt, the structure may show the parent alone. Read-outs that look alike come from different tables or passages of the source.

Usually cell viability stands for a read-out of living cells in per cent, often relative to untreated cells. The EC50 is the concentration that produces a half-maximal response.

T1 sequence (P29274 whole entry): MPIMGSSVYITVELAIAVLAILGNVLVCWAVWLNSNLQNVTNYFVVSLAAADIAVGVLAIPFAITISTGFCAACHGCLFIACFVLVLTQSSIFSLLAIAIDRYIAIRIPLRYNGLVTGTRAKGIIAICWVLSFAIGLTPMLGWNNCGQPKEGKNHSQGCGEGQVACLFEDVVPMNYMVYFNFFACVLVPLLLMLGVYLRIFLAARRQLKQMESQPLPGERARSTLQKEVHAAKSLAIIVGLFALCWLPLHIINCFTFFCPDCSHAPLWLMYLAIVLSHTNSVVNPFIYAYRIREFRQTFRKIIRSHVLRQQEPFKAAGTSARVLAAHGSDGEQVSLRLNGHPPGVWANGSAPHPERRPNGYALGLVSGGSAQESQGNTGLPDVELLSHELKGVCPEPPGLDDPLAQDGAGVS

For the compound `CC(=O)Nc1ccc(-c2nc(SCc3cccc(CCC(=O)N4CCN(CC5CCNCC5)CC4)n3)nc(N)c2C#N)cc1` [Example 1, N-(4-(6-amino-5-cyano-2-((6-(3-oxo-3-(4-(piperidin-4-yl-methyl)piperazin-1-yl)propyl)pyridin-2-yl)methylthio)-pyrimidin-4-yl)phenyl)acetamide trihydrochloride], the cell viability in data set [1] (0.25 mM) is on record as 106.3%; in data set [1] (0.5 mM), 115.0%; in data set [1] (1 mM), 100.7%. The “Cell survival (%)” value in data set [2] (3 nM) was found to be 10.9 ± 7.0%; in data set [2] (10 nM), 46.5 ± 7.0%; in data set [2] (30 nM), 41.9 ± 5.5%. For the same compound, the “Relaxation (%)” value in the data set with ciliary artery (0.3 μM) was determined as 2.6 ± 0.5%; in the data set with ciliary artery (1 μM), 4.8 ± 1.2%; in the data set with ciliary artery (3 μM) it was 7.9 ± 2.3%; in the data set on ciliary artery (10 μM) it was 35.3 ± 14.4%; in the data set with ciliary artery (30 μM), 65.6 ± 9.5%; in the data set with ciliary artery (100 μM), 82.4 ± 3.7%. For the same compound, the “Relaxation (%)” value in the data set with ciliary artery (300 μM) is 90.1 ± 2.4%. The concentration giving a half-maximal response (EC50) with ciliary artery (Oryctolagus cuniculus, rabbit ciliary artery rings, High K+ contraction) was 17000 nM; in data set [3] (setting [4]), 3.3 nM.

Regarding `CC(=O)Nc1ccc(-c2nc(SCc3cccc(CCC(=O)N4CCN(CC5CCN(CCO)CC5)CC4)n3)nc(N)c2C#N)cc1` [Example 2, N-(4-(6-amino-5-cyano-2-((6-(3-(4-((1-(2-hydroxyethyl)-piperidin-4-yl)methyl)piperazin-1-yl)-3-oxopropyl)pyridin-2-yl)methylthio)pyrimidin-4-yl)phenyl)acetamide maleate], in data set [3] (setting [4]), the concentration giving a half-maximal response (EC50) turned out to be 2.9 nM.

Take `CC(=O)Nc1ccc(-c2nc(SCc3cccc(CCC(=O)N4CCN(CC5CCN(CCCO)CC5)CC4)n3)nc(N)c2C#N)cc1` [Example 3, N-(4-(6-amino-5-cyano-2-((6-(3-(4-((1-(3-hydroxy-propyl)piperidin-4-yl)methyl)piperazin-1-yl)-3-oxopropyl)-pyridin-2-yl)methylthio)pyrimidin-4-yl)phenyl)acetamide]: the EC50 in data set [3] (setting [4]) worked out at 1.8 nM.

Consider `CC(=O)Nc1ccc(-c2nc(SCc3cccc(CCC(=O)N4CCN(CC5CCN(CCF)CC5)CC4)n3)nc(N)c2C#N)cc1` [Example 4, N-(4-(6-amino-5-cyano-2-((6-(3-(4-((1-(2-fluoroethyl)-piperidin-4-yl)methyl)piperazin-1-yl)-3-oxopropyl)pyridin-2-yl)methylthio)pyrimidin-4-yl)phenyl)acetamide], for which, in data set [3], the EC50 amounted to 6.1 nM.

As for `COC(=O)CCN1CCC(CN2CCN(C(=O)CCc3cccc(CSc4nc(N)c(C#N)c(-c5ccc(NC(C)=O)cc5)n4)n3)CC2)CC1` [Example 5, N-(4-(6-amino-5-cyano-2-((6-(3-(4-((1-(2-methoxy-carbonylethyl)piperidin-4-yl)methyl)piperazin-1-yl)-3-oxopropyl)pyridin-2-yl)methylthio)pyrimidin-4-yl)phenyl)-acetamide], the EC50 in data set [3] (setting [4]) amounted to 8.4 nM.

The values are drawn from patent US9708292B2, “Cyanopyrimidine derivative” (OTSUKA PHARMACEUTICAL CO., LTD., priority 2009, dated 2017).
